Drawing on patent US20230310428A1, “EGFR INHIBITOR AND PREPARATION METHOD AND USE THEREOF” (HONGYUN BIOTECH CO., LTD., priority 2020, published 2023), this text covers IC50 for 20 compounds.

Holding throughout (assay): Growth inhibitory activity of compounds on BaF3 cell lines stably transfected with kinase (MTS, 48 h)
Common to all, as to format: cell-based

Test [1] addresses T1, various mutants of kinase EGFR (BaF3 cell lines stably transfected with kinase) (Homo sapiens, UniProt P00533).
T1 construct: other: BaF3 cells stably transfected with EGFR Δ19Del; MTS, 48 h; other: BaF3 cell line stably transfected with EGFR Δ19Del
The conditions noted are these: BaF3 cells stably transfected with EGFR Δ19Del, read-out: IC50, growth inhibition, Δ19Del. As for the experimental part: (§1) The activity of compounds against various mutants of kinase EGFR was evaluated by their effect of inhibiting growth of BaF3 cell lines stably transfected with kinase. The specific test method was given as follows:
(§2) 1) Culture medium: DMEM (Dulbecco’s modified eagle medium) or RPMI 1640 (containing 10% fetal bovine serum, 100 µg/mL ampicillin, 100 µg/mL streptomycin).
(§3) 2) Reagent: MTS reaction solution (containing 2 mg/mL of MTS [3-(4,5-dimethylthiazol-2-yl)-5-(3-carboxymethoxyphenyl)-2-(4-sulfophenyl)-2H-tetrazoliu m, inner Salt]; 100 µg/mL of PES ([…])).
(§4) 3) Compound test: cells were incubated into a 96-well culture plate, the volume of cytosol was 90 µL, and then 10 µL of the compound at each gradient concentration was added. That is, the highest concentration was 10 µM, which was diluted stepwise by ⅓, and 8 concentration points were set in total; 0.1% DMSO (dimethyl sulfoxide) was contained in the system. The cell plate with uniformly mixed compound was cultured in a cell culture incubator (37° C.; 5% CO2) for 48 h, then 20 µL of MTS reaction solution was added, uniformly mixed and incubated in the cell culture incubator (37° C.; 5% CO2) for 1-4 h. OD values at 490 nm were measured by a microplate reader (VARIOSKAN FLASH, Thermo). Two parallels were set in each group of experiments, with 0.1% (a final concentration) DMSO as a negative control, and a culture medium without cells and compounds as a blank control. The cell growth inhibition rate was calculated by the following formula: […]
(§5) 4) IC50 calculation: The semi-inhibitory concentration of the compounds acting on cells was calculated using GradPad Prism 5 software according to the measured cell growth inhibition rate.

The target of test [2] is T2, various mutants of kinase EGFR (BaF3 cell lines stably transfected with kinase) (Homo sapiens, UniProt P00533, C797S/L858R/T790M).
T2 construct: expressed in transfected cells; host or cells: BaF3
The conditions noted are these: BaF3 cells stably transfected with EGFR L858R/T790M/C797S, read-out: IC50, growth inhibition, L858R/T790M/C797S. As for the experimental part: as §1, §2, §3, §4, §5

In test [3] the target is T3, various mutants of kinase EGFR (BaF3 cell lines stably transfected with kinase) (Homo sapiens, UniProt P00533, L858R).
T3 construct: expressed in transfected cells; host or cells: BaF3
Particulars: BaF3 cells stably transfected with EGFR L858R, read-out: IC50, growth inhibition, L858R. As for the experimental part:
as §1, §2, §3, §4, §5

Test [4] addresses T4, various mutants of kinase EGFR (BaF3 cell lines stably transfected with kinase) (Homo sapiens, UniProt P00533, L858R/T790M).
T4 construct: expressed in transfected cells; host or cells: BaF3
Particulars: BaF3 cells stably transfected with EGFR L858R/T790M, read-out: IC50, growth inhibition, L858R/T790M. As for the experimental part: as §1, §2, §3, §4, §5

In test [5] the target is T5, various mutants of kinase EGFR (BaF3 cell lines stably transfected with kinase) (Homo sapiens, UniProt P00533, T790M/C797S, form not given).
T5 construct: other: BaF3 cells stably transfected with EGFR Δ19Del/T790M/C797S; MTS, 48; other: BaF3 cell line stably transfected with EGFR Δ19Del/T790M/C7
The conditions noted are these: BaF3 cells stably transfected with EGFR Δ19Del/T790M/C797S, read-out: IC50, growth inhibition, Δ19Del/T790M/C797S. As for the experimental part:
as §1, §2, §3, §4, §5

Test [6] concerns the target T6, various mutants of kinase EGFR (BaF3 cell lines stably transfected with kinase) (Homo sapiens, UniProt P00533, T790M, form not given).
T6 construct: other: BaF3 cells stably transfected with EGFR Δ19Del/T790M; MTS, 48 h; other: BaF3 cell line stably transfected with EGFR Δ19Del/T790M; MTS, 48
The conditions noted are these: BaF3 cells stably transfected with EGFR Δ19Del/T790M, read-out: IC50, growth inhibition, Δ19Del/T790M. As for the experimental part: as §1, §2, §3, §4, §5

Structures are written as SMILES.

T6 sequence (P00533 with tags, fused parts or gaps DEL746-750/T790M, form open): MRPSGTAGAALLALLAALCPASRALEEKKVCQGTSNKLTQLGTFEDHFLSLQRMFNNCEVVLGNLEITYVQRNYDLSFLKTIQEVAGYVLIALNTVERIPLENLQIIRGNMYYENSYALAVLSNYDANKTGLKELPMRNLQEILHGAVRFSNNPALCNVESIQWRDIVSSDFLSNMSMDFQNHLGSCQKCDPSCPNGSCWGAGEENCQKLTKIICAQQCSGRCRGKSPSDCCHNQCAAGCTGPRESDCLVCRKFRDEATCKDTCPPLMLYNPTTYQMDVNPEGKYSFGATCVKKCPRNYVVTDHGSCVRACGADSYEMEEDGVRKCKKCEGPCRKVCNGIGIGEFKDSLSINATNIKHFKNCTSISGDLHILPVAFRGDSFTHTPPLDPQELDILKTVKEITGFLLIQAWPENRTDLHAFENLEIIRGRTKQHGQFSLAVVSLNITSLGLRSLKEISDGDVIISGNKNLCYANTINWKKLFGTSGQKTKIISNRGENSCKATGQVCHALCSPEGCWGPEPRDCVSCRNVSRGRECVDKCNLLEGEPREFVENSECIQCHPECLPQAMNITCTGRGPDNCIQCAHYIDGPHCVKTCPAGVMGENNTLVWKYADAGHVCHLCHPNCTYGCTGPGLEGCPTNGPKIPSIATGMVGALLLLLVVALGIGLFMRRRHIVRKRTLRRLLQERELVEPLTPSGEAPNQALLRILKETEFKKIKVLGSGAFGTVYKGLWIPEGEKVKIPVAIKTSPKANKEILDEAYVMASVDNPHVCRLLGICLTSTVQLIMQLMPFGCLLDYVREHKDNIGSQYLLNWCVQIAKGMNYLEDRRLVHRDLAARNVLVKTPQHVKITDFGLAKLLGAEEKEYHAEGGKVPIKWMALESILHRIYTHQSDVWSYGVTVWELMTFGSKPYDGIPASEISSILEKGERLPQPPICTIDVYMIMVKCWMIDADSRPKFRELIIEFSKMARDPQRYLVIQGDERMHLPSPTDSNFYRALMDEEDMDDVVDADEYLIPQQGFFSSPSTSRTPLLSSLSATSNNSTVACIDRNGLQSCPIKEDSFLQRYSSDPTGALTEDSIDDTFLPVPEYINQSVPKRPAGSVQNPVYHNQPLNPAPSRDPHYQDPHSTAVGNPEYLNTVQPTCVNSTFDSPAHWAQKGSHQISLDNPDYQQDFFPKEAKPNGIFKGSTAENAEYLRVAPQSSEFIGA
T5 sequence (P00533 with tags, fused parts or gaps DEL746-750/T790M/C797S, form open): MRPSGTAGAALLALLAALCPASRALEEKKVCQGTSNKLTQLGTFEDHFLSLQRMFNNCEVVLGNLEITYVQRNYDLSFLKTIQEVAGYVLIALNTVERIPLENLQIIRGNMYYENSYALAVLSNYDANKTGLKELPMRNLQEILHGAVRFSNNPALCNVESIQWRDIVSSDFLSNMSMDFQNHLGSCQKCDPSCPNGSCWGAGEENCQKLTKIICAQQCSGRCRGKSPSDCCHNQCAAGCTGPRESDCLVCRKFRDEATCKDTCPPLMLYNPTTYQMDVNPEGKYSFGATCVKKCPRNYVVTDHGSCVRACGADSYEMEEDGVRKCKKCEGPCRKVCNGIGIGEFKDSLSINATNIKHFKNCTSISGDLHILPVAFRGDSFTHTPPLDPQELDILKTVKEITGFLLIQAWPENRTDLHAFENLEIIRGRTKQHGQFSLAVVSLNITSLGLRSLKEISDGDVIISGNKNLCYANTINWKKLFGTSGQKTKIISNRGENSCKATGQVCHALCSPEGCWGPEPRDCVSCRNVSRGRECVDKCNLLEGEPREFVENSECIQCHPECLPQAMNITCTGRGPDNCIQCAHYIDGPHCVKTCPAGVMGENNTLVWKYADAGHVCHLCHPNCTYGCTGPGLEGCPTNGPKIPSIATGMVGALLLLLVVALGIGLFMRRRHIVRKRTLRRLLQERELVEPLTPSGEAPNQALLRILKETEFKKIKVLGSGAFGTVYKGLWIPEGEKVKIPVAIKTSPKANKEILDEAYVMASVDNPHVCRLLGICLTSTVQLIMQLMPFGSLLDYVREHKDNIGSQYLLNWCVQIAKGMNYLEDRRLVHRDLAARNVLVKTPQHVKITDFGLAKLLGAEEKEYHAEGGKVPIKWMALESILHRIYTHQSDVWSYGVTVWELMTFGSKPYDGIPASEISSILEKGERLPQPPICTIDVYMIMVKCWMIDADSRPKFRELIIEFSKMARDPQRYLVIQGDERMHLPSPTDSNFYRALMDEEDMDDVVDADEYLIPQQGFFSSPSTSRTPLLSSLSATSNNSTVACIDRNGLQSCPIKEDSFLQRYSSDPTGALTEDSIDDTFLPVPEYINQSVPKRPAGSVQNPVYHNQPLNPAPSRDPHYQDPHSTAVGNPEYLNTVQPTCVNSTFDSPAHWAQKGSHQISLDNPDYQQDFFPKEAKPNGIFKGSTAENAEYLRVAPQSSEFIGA
T4 sequence (P00533 25-1210 T790M/L858R): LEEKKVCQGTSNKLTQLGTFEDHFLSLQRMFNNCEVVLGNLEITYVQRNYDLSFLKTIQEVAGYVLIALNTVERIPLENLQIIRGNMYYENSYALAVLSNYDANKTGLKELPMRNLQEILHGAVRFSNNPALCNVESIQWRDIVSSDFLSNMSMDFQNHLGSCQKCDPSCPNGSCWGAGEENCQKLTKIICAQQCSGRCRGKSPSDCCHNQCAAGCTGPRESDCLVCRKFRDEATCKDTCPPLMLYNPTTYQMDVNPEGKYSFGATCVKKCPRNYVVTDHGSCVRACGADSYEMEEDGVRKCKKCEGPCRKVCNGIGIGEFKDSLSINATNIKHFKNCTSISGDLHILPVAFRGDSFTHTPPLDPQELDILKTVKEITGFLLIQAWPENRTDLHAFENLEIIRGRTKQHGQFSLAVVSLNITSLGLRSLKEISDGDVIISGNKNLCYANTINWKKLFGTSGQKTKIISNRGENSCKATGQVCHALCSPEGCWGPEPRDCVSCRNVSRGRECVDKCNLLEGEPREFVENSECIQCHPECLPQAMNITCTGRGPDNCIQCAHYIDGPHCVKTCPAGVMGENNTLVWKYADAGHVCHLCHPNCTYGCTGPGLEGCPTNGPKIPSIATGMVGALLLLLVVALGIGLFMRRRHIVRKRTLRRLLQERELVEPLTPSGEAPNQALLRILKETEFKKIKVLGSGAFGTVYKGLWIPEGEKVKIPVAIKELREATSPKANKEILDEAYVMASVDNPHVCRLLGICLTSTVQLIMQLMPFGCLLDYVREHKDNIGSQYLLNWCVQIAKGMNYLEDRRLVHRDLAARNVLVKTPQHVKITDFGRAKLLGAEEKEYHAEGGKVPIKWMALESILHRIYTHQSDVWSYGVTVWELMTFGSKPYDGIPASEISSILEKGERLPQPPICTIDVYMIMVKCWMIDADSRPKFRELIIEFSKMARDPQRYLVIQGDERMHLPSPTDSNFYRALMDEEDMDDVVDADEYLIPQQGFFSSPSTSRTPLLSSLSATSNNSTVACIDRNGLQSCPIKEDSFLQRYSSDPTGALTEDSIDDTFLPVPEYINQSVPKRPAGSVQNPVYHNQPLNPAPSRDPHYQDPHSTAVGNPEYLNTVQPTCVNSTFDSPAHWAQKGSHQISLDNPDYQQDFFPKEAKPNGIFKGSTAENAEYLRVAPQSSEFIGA
T1 sequence (P00533 with tags, fused parts or gaps DEL746-750): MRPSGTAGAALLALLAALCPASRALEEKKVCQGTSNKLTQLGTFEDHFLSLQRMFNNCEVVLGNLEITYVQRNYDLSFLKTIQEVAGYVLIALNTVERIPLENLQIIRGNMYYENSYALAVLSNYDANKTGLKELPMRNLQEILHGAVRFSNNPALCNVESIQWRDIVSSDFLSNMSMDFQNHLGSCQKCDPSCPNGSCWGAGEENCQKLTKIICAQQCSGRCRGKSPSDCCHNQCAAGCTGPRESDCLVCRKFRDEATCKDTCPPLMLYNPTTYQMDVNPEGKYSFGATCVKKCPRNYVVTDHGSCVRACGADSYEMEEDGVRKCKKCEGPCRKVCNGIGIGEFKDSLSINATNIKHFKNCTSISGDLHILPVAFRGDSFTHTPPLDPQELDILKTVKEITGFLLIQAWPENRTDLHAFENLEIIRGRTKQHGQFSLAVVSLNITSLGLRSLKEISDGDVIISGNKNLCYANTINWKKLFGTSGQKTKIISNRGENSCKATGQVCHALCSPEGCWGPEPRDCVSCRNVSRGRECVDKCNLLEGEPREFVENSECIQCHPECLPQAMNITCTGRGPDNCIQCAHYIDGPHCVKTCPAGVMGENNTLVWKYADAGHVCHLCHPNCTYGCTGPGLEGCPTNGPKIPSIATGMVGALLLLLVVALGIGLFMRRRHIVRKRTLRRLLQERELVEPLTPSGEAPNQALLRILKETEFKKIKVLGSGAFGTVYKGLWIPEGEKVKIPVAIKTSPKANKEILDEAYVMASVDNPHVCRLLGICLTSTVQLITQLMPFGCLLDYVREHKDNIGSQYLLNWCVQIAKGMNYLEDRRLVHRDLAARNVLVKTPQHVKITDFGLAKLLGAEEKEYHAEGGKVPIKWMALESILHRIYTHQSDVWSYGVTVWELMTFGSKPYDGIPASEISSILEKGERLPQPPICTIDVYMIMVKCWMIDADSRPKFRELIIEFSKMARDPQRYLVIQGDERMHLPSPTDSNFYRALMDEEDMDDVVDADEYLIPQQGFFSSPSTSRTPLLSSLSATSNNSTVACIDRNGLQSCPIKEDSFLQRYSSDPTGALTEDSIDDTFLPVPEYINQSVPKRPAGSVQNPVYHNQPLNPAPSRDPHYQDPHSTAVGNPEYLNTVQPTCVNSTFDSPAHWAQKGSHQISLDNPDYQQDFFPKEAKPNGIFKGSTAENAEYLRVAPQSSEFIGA

`COc1cc(N2CCC(N3CCN(C)CC3)CC2)ccc1Nc1ncc(Br)c(Nc2ccc3nccnc3c2N(C)S(C)(=O)=O)n1` [Compound I-1]: the IC50 in test [1], in test [2], in test [3], in test [4], in test [5] and in test [6] was at most 50 nM each time.

Consider `COc1cc(N2CCC(N3CCN(C)CC3)CC2)c(C)cc1Nc1ncc(Br)c(Nc2ccc3nccnc3c2N(C)S(C)(=O)=O)n1` [Compound I-2], for which the IC50 in test [1], in test [2], in test [3], in test [4], in test [5] and in test [6] was at most 50 nM each time.

In the case of `CCc1cc(Nc2ncc(Br)c(Nc3ccc4nccnc4c3N(C)S(C)(=O)=O)n2)c(OC)cc1N1CCC(N2CCN(C)CC2)CC1` [Compound I-3], the IC50 in test [1], in test [2], in test [3], in test [4], in test [5] and in test [6] was at most 50 nM in each case.

Turning to `COc1nc(N2CCC(N3CCN(C)CC3)CC2)ccc1Nc1ncc(Br)c(Nc2ccc3nccnc3c2N(C)S(C)(=O)=O)n1` [Compound I-4], the IC50 in test [1] is 50 to 500 nM; in test [2] it was 50 to 500 nM; in test [3], 50 to 500 nM; in test [4] it was 50 to 500 nM; in test [5], at most 50 nM; in test [6], 50 to 500 nM.

For `CCc1cc(Nc2ncc(Br)c(Nc3ccc4nccnc4c3N(C)S(C)(=O)=O)n2)c(OC)nc1N1CCC(N2CCN(C)CC2)CC1` [Compound I-6], the IC50 is 50 to 500 nM in test [1]; at most 50 nM in test [2]; at most 50 nM in test [3]; at most 50 nM in test [4]; at most 50 nM in test [5]; at most 50 nM in test [6].

Turning to `CN1CCN(C2CCN(c3ccc(Nc4ncc(Br)c(Nc5ccc6nccnc6c5N(C)S(C)(=O)=O)n4)c(OC(F)(F)F)c3)CC2)CC1` [Compound I-7], the IC50 in test [1] was 50 to 500 nM; in test [2], 50 to 500 nM; in test [3], 50 to 500 nM; in test [4], 50 to 500 nM; in test [5], at most 50 nM; in test [6], 50 to 500 nM.

Turning to `C=Cc1cc(Nc2ncc(Br)c(Nc3ccc4nccnc4c3N(C)S(C)(=O)=O)n2)c(OC(F)(F)F)cc1N1CCC(N2CCN(C)CC2)CC1` [Compound I-9], the IC50 in test [1], in test [2], in test [3], in test [4], in test [5] and in test [6] was at most 50 nM in each case.

With `COc1cc(N2CCC(N3CCN(C)CC3)CC2)c(CC2CC2)cc1Nc1ncc(Br)c(Nc2ccc3nccnc3c2N(C)S(C)(=O)=O)n1` [Compound I-10], the IC50 in test [1] was 50 to 500 nM; in test [2], at most 50 nM; in test [3] it was at most 50 nM; in test [4], at most 50 nM; in test [5], at most 50 nM; in test [6], at most 50 nM.

Regarding `COc1cc(N2CCC(N3CCN(C)CC3)CC2)c(Cc2ccccc2)cc1Nc1ncc(Br)c(Nc2ccc3nccnc3c2N(C)S(C)(=O)=O)n1` [Compound I-11], the IC50 in test [1] fell in the range of 500 to 2500 nM; in test [2], 500 to 2500 nM; in test [3], 50 to 500 nM; in test [4] it was 500 to 2500 nM; in test [5], 500 to 2500 nM; in test [6] it was 500 to 2500 nM.

For `COc1cc(N2CCN(C)CC2)c(C)cc1Nc1ncc(Br)c(Nc2ccc3nccnc3c2N(C)S(C)(=O)=O)n1` [Compound I-12], the IC50 in test [1] is 50 to 500 nM; in test [2], at most 50 nM; in test [3], at most 50 nM; in test [4] it was at most 50 nM; in test [5] it was at most 50 nM; in test [6], at most 50 nM.

In the case of `COc1cc(N2CCC(N(C)C)CC2)c(C)cc1Nc1ncc(Br)c(Nc2ccc3nccnc3c2N(C)S(C)(=O)=O)n1` [Compound I-13], the IC50 in test [1], in test [2], in test [3], in test [4], in test [5] and in test [6] was at most 50 nM throughout.

As for `COc1cc(N2CCC(N(C)C)C2)c(C)cc1Nc1ncc(Br)c(Nc2ccc3nccnc3c2N(C)S(C)(=O)=O)n1` (stereo not drawn) [Compound I-14], the IC50 is 50 to 500 nM in test [1]; at most 50 nM in test [2]; at most 50 nM in test [3]; at most 50 nM in test [4]; at most 50 nM in test [5]; at most 50 nM in test [6].

`CCc1cc(Nc2ncc(Br)c(Nc3ccc4nccnc4c3N(C)S(C)(=O)=O)n2)c(OC)cc1N1CCN(C)CC1` [Compound I-15]: the IC50 in test [1], in test [2], in test [3], in test [4], in test [5] and in test [6] was at most 50 nM throughout.

Take `CCc1cc(Nc2ncc(Br)c(Nc3ccc4nccnc4c3N(C)S(C)(=O)=O)n2)c(OC)cc1N1CCC(N(C)C)CC1` [Compound I-16]: the IC50 in test [1], in test [2], in test [3], in test [4], in test [5] and in test [6] was at most 50 nM in each case.

For `CCc1cc(Nc2ncc(Br)c(Nc3ccc4nccnc4c3N(C)S(C)(=O)=O)n2)c(OC)cc1N1CCC(N(C)C)C1` (stereo not drawn) [Compound I-17], the IC50 in test [1], in test [2], in test [3], in test [4], in test [5] and in test [6] was at most 50 nM each time.

With `COc1cc(N2CCC(N3CCN(C)CC3)CC2)ccc1Nc1ncc(Cl)c(Nc2ccc3nccnc3c2N(C)S(C)(=O)=O)n1` [Compound I-18], the IC50 in test [1] is 50 to 500 nM; in test [2], 50 to 500 nM; in test [3] it was 50 to 500 nM; in test [4], at most 50 nM; in test [5] it was 50 to 500 nM; in test [6] it was 50 to 500 nM.

For `COc1cc(N2CCC(N3CCN(C)CC3)CC2)c(C)cc1Nc1ncc(Cl)c(Nc2ccc3nccnc3c2N(C)S(C)(=O)=O)n1` [Compound I-19], the IC50 in test [1], in test [2], in test [3], in test [4], in test [5] and in test [6] was at most 50 nM throughout.

With `CCc1cc(Nc2ncc(Cl)c(Nc3ccc4nccnc4c3N(C)S(C)(=O)=O)n2)c(OC)cc1N1CCC(N2CCN(C)CC2)CC1` [Compound I-20], the IC50 in test [1], in test [2], in test [3], in test [4], in test [5] and in test [6] was at most 50 nM in each case.

In the case of `CCc1cc(Nc2ncc(Cl)c(Nc3ccc4nccnc4c3N(C)S(C)(=O)=O)n2)c(OC)nc1N1CCC(N2CCN(C)CC2)CC1` [Compound I-21], the IC50 in test [1] was 50 to 500 nM; in test [2], at most 50 nM; in test [3] it was at most 50 nM; in test [4], at most 50 nM; in test [5], at most 50 nM; in test [6], at most 50 nM.

With `CCc1cc(Nc2ncc(Cl)c(Nc3ccc4nccnc4c3N(C)S(C)(=O)=O)n2)c(OC(F)(F)F)cc1N1CCC(N2CCN(C)CC2)CC1` [Compound I-22], the IC50 is 50 to 500 nM in test [1]; at most 50 nM in test [2]; 50 to 500 nM in test [3]; 50 to 500 nM in test [4]; at most 50 nM in test [5]; at most 50 nM in test [6].
